Key:
Format in all cases: cell-based, human
[1] = tested on: THP-1 (acute monocytic leukemia); assay: CIMA assay (tetrazolium reduction, cell viability, 72 h); settings: THP-1
Protocol: (§1) Prepared extracts were assessed following chronic exposure conditions in which cells were seeded at 2×10^3 cells/well (96 wells-plate) and incubated with test compounds for 72 h. Each compound was evaluated over a range of concentrations (0, 10, 25, 50 or 100 μg/ml). Cell proliferation was initially assessed using a standard colorimetric indicator of metabolic activity (CIMA) assay. In this assay, tetrazole reduction was evaluated as a measure of metabolic function that evaluates mitochondrial activity to determine the extent of cell proliferation within a culture. This assay is based on the reduction of yellow tetrazolium salt to purple formazan by mitochondrial reductases enzyme in viable cells, resulting in a color change that confers a change in absorbance. Seven human cell lines were selected for primary evaluation: U373 (glioblastoma-astrocytoma), A549 (lung carcinoma), THP-1 (acute monocytic leukemia), MCF7 (mammary gland adenocarcinoma), SKOV3 (ovarian adenocarcinoma), PC3 (prostate adenocarcinoma) and CCD1079SK (fibroblast, noncancerous but proliferating) (see FIG. 2 and Table 2). Results are expressed in Table 2 as % viability (means±standard deviation of three replicates), with LD50/IC50 values in Tables 3 and 6. […] The maximum DMSO concentration was 1% at 100 μg/ml with 5% SDS used as a known toxic inducer.
(§2) Experimental: Stock solutions of the test compounds were prepared in dimethylsulfoxide (DMSO) at 10 mg/ml and stored at −20° C. until used. This preparation ensures that the DMSO content delivered to cells in culture never exceeds 1%. Appropriate cells number, based on previous assays, were seeded in 96 well plate and incubated with test compounds (up to 8 log concentrations, 0 to 50 or 100 μg/ml) for 72 h. Cell proliferation was initially assessed using a standard colorimetric indicator of metabolic activity (CIMA) assay. In this assay, reduction of yellow tetrazolium salt (MTT) to purple formazan by mitochondrial reductases enzymes in viable cells were measured as change in absorbance (λ=500-600).
(§3) Seven human cell lines were evaluated: U373 (glioblastoma-astrocytoma), A549 (lung carcinoma), PC3 (prostate adenocarcinoma), THP1 (acute monocytic leukemia), MDA-MB-231 (mammary gland adenocarcinoma), SKOV3 (ovarian adenocarcinoma) and CCD1079Sk (normal skin fibroblast) cells.

[2] = tested on: PC3 (prostate adenocarcinoma); assay: as above; settings: PC3
Protocol: as §1, §2, §3

[3] = tested on: U373 (glioblastoma-astrocytoma); assay: as above; settings: U373
Protocol: as §1, §2, §3

[4] = tested on: CCD1079SK (fibroblast, noncancerous but proliferating); assay: as above; settings: CCD
Protocol: as §1, §2, §3

[5] = tested on: SKOV3 (ovarian adenocarcinoma); assay: as above; settings: SKOV
Protocol: as §1, §2, §3

[6] = tested on: A549 (lung carcinoma); assay: as above; settings: A549
Protocol: as §1, §2, §3

[7] = tested on: MDA-MB-231 (mammary gland adenocarcinoma); assay: CIMA assay (MTT, 72 h); settings: MDA-MB
Protocol: as §2, with “Appropriate cells number, based on previous assays, were seeded in 96 well plate and incubated with test compounds (up to 8 log concentrations, 0 to 50 or 100 μg/ml) for 72 h.” left out
as §3

SMILES: CCCCCC(O)C(O)/C=C/C1CCCCCCCC(=O)O1 (racemic) [compound (I), 12,13-dihydroxy-10-octadecen-9-olide]
- fold change viability (AVG) ([1]; 1 ug/mL): 1.09
- fold change viability (AVG) ([1]; 10 ug/mL): 0.95
- fold change viability (AVG) ([1]; 50 ug/mL): 0.77
- fold change viability (AVG) ([1]; 100 ug/mL): 0.50
- fold change viability (AVG) ([2]; 1 ug/mL): 1.03
- fold change viability (AVG) ([2]; 10 ug/mL): 0.96
- fold change viability (AVG) ([2]; 50 ug/mL): 1.01
- fold change viability (AVG) ([2]; 100 ug/mL): 0.19
- fold change viability (AVG) ([3]; 1 ug/mL): 0.92
- fold change viability (AVG) ([3]; 10 ug/mL): 0.86
- fold change viability (AVG) ([3]; 50 ug/mL): 0.69
- fold change viability (AVG) ([3]; 100 ug/mL): 0.03
- fold change viability (AVG) ([4]; 1 ug/mL): 1.00
- fold change viability (AVG) ([4]; 10 ug/mL): 0.92
- fold change viability (AVG) ([4]; 50 ug/mL): 0.99
- fold change viability (AVG) ([4]; 100 ug/mL): 0.18
- fold change viability (AVG) ([5]; 1 ug/mL): 1.04
- fold change viability (AVG) ([5]; 10 ug/mL): 1.05
- fold change viability (AVG) ([5]; 50 ug/mL): 1.01
- fold change viability (AVG) ([5]; 100 ug/mL): 0.92
- fold change viability (AVG) ([6]; 1 ug/mL): 1.11
- fold change viability (AVG) ([6]; 10 ug/mL): 1.09
- fold change viability (AVG) ([6]; 50 ug/mL): 1.08
- fold change viability (AVG) ([6]; 100 ug/mL): 0.72
- fold change viability (AVG) ([7]; 1 ug/mL): 1.10
- fold change viability (AVG) ([7]; 10 ug/mL): 1.05
- fold change viability (AVG) ([7]; 50 ug/mL): 0.72
- fold change viability (AVG) ([7]; 100 ug/mL): 0.21

SMILES: CCCCCCCCCCCCOS(=O)(=O)[O-].[Na+] [SDS, reference compound]
- average cell viability ([7]; positive control, 250 ug/ml): 14

Source: patent US20210323940A1 (OCEANS LTD., priority 2018, published 2021)
